Assay results from patent publication US8921108B2, “Differentiated human liver cell cultures and their use in bioartificial liver systems” (Academisch Ziekenhuis Bij de Universiteit van Amsterdam, priority 2009, dated 2014).
Where “and” joins values, the source holds several entries; their conditions need not be identical. Equal entries are not always repeated.

Tests used:
HepaRG cells [1] = experiment: Urea production of HepaRG monolayer cultures; format: cell-based, human
Description: For testing, the cells are seeded in 6-well and 24-well culture plates (Corning) in HepaRG media with different FBS batches or other differences in medium composition. After a 2 weeks proliferation phase, 2% of DMSO will be added to half of the cultures. After another 2 weeks of culturing, the confluence and morphology of the cultures will be assessed microscopically. Furthermore the +DMSO and −DMSO cell cultures in the 24-well plates will be tested for biochemical activity, i.e. urea production, ammonia elimination and protein content. […] Medium samples are taken after 1 hr from the culture wells, as a reference, and after 24 hours. At the end of the test period the cells are washed three times using PBS and stored at −20° C. for protein determination. From the changes in concentration at t=1 hr and 24 hr of urea and ammonia an activity per hour and per mg protein/well is calculated.
Urea: Urea concentrations of test medium samples are determined using the blood urea nitrogen test of Sigma Chemical Co according to the instructions of the manufacturer.
(§1) The HepaRG cells are cultured as indicated above in 24 well in presence or absence of 1 mM CG during the last 5 days. Next the cells are tested as indicated above in presence or absence of CG during 24 hours. To determine the conversion of ammonia into urea, the ^15N urea enrichment (single and double labeled) is measured in the test samples using mass-spectrometry. Similarly, HepG2 and cBAL111 cells were tested for their response to CG.

HepaRG cells [2] = experiment: Galactose elimination of HepaRG monolayer cultures; format: cell-based, human; conditions: HepaRG monolayer +DMSO
Description: (§2) For testing, the cells are seeded in 6-well and 24-well culture plates (Corning) in HepaRG media with different FBS batches or other differences in medium composition. After a 2 weeks proliferation phase, 2% of DMSO will be added to half of the cultures. After another 2 weeks of culturing, the confluence and morphology of the cultures will be assessed microscopically. Furthermore the +DMSO and −DMSO cell cultures in the 24-well plates will be tested for biochemical activity, i.e. urea production, ammonia elimination and protein content. The cultured cells are washed twice using phosphate buffered saline (PBS, NBPI International) and then incubated with test medium consisting of HepaRG culture medium supplemented with 1.5 mM ^15NH4Cl (Sigma), 2.75 mM D-galactose (Sigma), 2 mM ornithine hydrochloride (Sigma) and 2 mM L-lactate (Sigma). Medium samples are taken after 1 hr from the culture wells, as a reference, and after 24 hours. At the end of the test period the cells are washed three times using PBS and stored at −20° C. for protein determination. From the changes in concentration at t=1 hr and 24 hr of urea and ammonia an activity per hour and per mg protein/well is calculated. Quality of the cell-loaded bioreactors, measured by hepatocyte function at the start of the treatment, will be compared with values of primary hepatocytes that have been tested extensively in vitro in the past.

HepaRG cells [3] = experiment: Ammonia elimination of HepaRG monolayer cultures; format: cell-based, human
Description: For testing, the cells are seeded in 6-well and 24-well culture plates (Corning) in HepaRG media with different FBS batches or other differences in medium composition. After a 2 weeks proliferation phase, 2% of DMSO will be added to half of the cultures. After another 2 weeks of culturing, the confluence and morphology of the cultures will be assessed microscopically. Furthermore the +DMSO and −DMSO cell cultures in the 24-well plates will be tested for biochemical activity, i.e. urea production, ammonia elimination and protein content. […] From the changes in concentration at t=1 hr and 24 hr of urea and ammonia an activity per hour and per mg protein/well is calculated. Quality of the cell-loaded bioreactors, measured by hepatocyte function at the start of the treatment, will be compared with values of primary hepatocytes that have been tested extensively in vitro in the past.
Ammonia: Ammonia concentrations are determined by an enzymatic kinetic colorimetric assay using glutamate dehydrogenase and NADPH, using the Ammonia (rapid) kit (Megazyme, Ireland) according to the instructions of the manufacturer.

HepaRG cells [4] = experiment: Lactate elimination/consumption of HepaRG monolayer cultures; format: cell-based, human
Description: as §2, with “At the end of the test period the cells are washed three times using PBS and stored at −20° C. for protein determination.” left out
Lactate and glucose concentration: Both are analyzed using a P800 analyzer (Roche Diagnostics).

HepaRG cells [5] = experiment: Total protein content of HepaRG monolayer cultures; format: cell-based, human
Description: as §2
Total protein: Total protein was quantified by spectrometry using Coomassie blue (Bio-Rad).

HepaRG cells [6] = experiment: AST and LDH leakage of HepaRG monolayer cultures; format: cell-based, human; conditions: HepaRG monolayer +DMSO
Description: as §2
AST and LDH: Both AST and LDH activities are analyzed spectrophotometrically using a P800 Roche Diagnostics analyzer.

HepaRG cells [7] = experiment: RT-PCR mRNA levels of hepatic genes in HepaRG monolayer cultures; format: cell-based, human
Description: The HepaRG cells cultured in the 6-well plates are lysed and the RNA is isolated using the RNeasy kit (Qiagen). Next, real-time reverse transcriptase-polymerase chain reactions (RT-PCR) are performed to quantify mRNA levels of hepatic genes as well as 18S ribosomal RNA levels by RT-PCR.
First-strand cDNA is generated using a combination of 40 pmol of gene-specific RT-primers (see Table 1) and 134 units of Superscript III (Invitrogen) and 1 μg RNA in a total volume of 25 μl at 50° C. for one hour followed by a 15 min incubation at 70° C. The resulting gene-specific RT reaction mixtures are column purified using Qiaquick PCR Purification Kit (Qiagen).
Real-time PCR is performed using 1 μl of cDNA and LightCycler FastStart DNA Master SYBR® Green 1 reagent (Roche). PCR primers are depicted in the Table 3. The thermal cycling profile of the touchdown PCR is as follows: 94° C. for 10 min, followed by 40 cycles of 94° C. for 1 s, primer annealing at 68° C. for 7 s with a 0.5° C./cycle decrease until 63° C., and extension for 40 s at 72° C. PCR specificity is verified by melting curve analysis and agarose gel electrophoresis. The mRNA quantification is carried out by using the LinRegPCR programme (Ramakers et al.^17). For each sample the mRNA starting level is normalised for the 18S rRNA starting level. To correct for variations between RT-PCR runs, the mRNA starting levels of liver specific genes of NKNT-3 cells are additionally standardized for average mRNA starting levels of two liver samples that are simultaneously subjected to RT-PCR.

HepaRG cells [8] = experiment: 15N urea enrichment (conversion of ammonia into urea) in HepaRG monolayer cultures; format: cell-based, human; conditions: HepaRG monolayer +DMSO, no CG
Description: as §2
^15N Urea: Single and Double labelled urea is measured in the test medium samples using mass-spectrometry.
as §1

HepaRG cells [9] = experiment: ApoA1 production of HepaRG monolayer cultures (ELISA); format: cell-based, human
Description: as §2
ApoA1: Human ApoA1 concentrations are determined by ELISA using rabbit anti-human ApoA1 (1:500, Calbiochem, 178422), as first antibody, monoclonal mouse anti human ApoA1 (1:500, Calbiochem, 178472) as second antibody and polyclonal rabbit anti mouse IgG-HRP (1:2000, Dako Po 260) as third antibody.

Arginase II (Arg II) = target: T1, Arginase II (Arg II) (Homo sapiens, UniProt P78540); conditions: C3A cells; cited from earlier work
T1 construct: Arginase II (Arg II) mRNA and protein was expressed at high levels in C3A cells; endogenous in cells; host or cells: C3A cells (HepG2 sub-clone)
T1 sequence (P78540 23-354): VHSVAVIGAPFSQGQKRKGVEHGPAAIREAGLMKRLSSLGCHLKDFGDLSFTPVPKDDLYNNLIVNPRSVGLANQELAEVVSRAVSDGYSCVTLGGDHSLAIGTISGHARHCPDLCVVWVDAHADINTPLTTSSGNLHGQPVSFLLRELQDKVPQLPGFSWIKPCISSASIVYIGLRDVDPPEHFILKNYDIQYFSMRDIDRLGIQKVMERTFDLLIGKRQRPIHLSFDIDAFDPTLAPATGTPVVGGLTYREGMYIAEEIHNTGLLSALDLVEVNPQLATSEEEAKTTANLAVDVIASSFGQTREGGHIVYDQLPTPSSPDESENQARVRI

[10] = HepaRG monolayer +DMSO, per well
[11] = HepaRG monolayer, 2% DMSO last 2 weeks, no CG
[12] = HepaRG monolayer, DMSO treatment

For `C[S+](C)[O-]` [DMSO, dimethylsulfoxide], the “Urea production (absolute value)” value (HepaRG cells [1]; [10]) was 0.8 ± 0.5 nmol/h, the Urea production (HepaRG cells [1]; [11]) was 8.1 ± 6.8 nmol/h/mg protein and 6.0 ± 4.2 nmol/h/mg protein and 7.0 ± 7.0 nmol/h/mg protein and the “Galactose elimination (protein normalized)” value (HepaRG cells [2]) was 58 ± 17 nmol/h/mg protein. For the same molecule, the “Galactose elimination (absolute value)” value (HepaRG cells [2]; per well) was 7.2 ± 1.8 nmol/h, the “Ammonia elimination (absolute value)” value (HepaRG cells [3]; [10]) was 11.6 ± 4.3 nmol/h and the Ammonia elimination (HepaRG cells [3]; [11]) was 107 ± 41 nmol/h/mg protein and 110 ± 49 nmol/h/mg protein. The Lactate consumption (HepaRG cells [4]; HepaRG monolayer +DMSO −CG) was “production”, the Lactate elimination (HepaRG cells [4]; [11]) was “production” and the total protein/well (HepaRG cells [5]; [11]) was 109 ± 21 µg. For the same molecule, the “cells killed by DMSO treatment” value (HepaRG cells [5]; HepaRG monolayer, deduced from total protein/well content and increased cell leakage) was “more than 50%”, the “effect on cell number” value (HepaRG cells [5]; presence of DMSO, deduced from total protein content) was “drastically reduced” and the “AST leakage (protein normalized)” value (HepaRG cells [6]) was 4.9 ± 2.4 mU/h/mg protein. The “LDH leakage (protein normalized)” value (HepaRG cells [6]) was 21.2 ± 9.4 mU/h/mg protein, the “AST leakage (absolute value)” value (HepaRG cells [6]; per well) was 0.43 ± 0.08 mU/h and the “LDH leakage (absolute value)” value (HepaRG cells [6]; per well) was 1.87 ± 0.43 mU/h. For the same molecule, the “ArgII mRNA level” value (HepaRG cells [7]; HepaRG monolayer +DMSO −CG) was 718 ± 463 % of in vivo, the “ALB mRNA level” value (HepaRG cells [7]; [11]) was 23 ± 4 % of in vivo and 22.7 ± 4.4 % of in vivo and the “ARG1 mRNA level” value (HepaRG cells [7]; [11]) was 5 ± 4 % of in vivo and 4.6 ± 3.7 % of in vivo. The “CPS mRNA level” value (HepaRG cells [7]; [11]) was 1.1 ± 0.4 % of in vivo, the “CYP2B6 mRNA level” value (HepaRG cells [7]; [11]) was 61 ± 30 % of in vivo and 60.7 ± 30.0 % of in vivo and the “CYP3A4 mRNA level” value (HepaRG cells [7]; [11]) was 69 ± 47 % of in vivo and 68.9 ± 47.2 % of in vivo. For the same molecule, the “GS mRNA level” value (HepaRG cells [7]; [11]) was 90 ± 29 % of in vivo and 90.1 ± 29.1 % of in vivo, the “HNF4 mRNA level” value (HepaRG cells [7]; [11]) was 61 ± 21 % of in vivo and 60.8 ± 21.1 % of in vivo and the “PXR mRNA level” value (HepaRG cells [7]; [11]) was 42 ± 19 % of in vivo and 41.7 ± 19.2 % of in vivo. The “effect on CYP2B6 and 3A4 expression” value (HepaRG cells [7]; [12]) was “increased”, the “effect on expression of other hepatic genes tested” value (HepaRG cells [7]; [12]) was “either unaffected or decreased” and the “effect on gene expression of synthetic and metabolic genes, as CPS and albumin and galactose elimination” value (HepaRG cells [7]; presence of DMSO) was “inhibited”. The 15N urea enrichment (HepaRG cells [8]) was 15.5 ± 8.4 % of total urea and 16.0 ± 8.4 % of total urea, the ApoA1 synthesis (HepaRG cells [9]; HepaRG monolayer +DMSO −CG) was 1.2 ± 1.1 ug/h/mg protein and the “ApoA1 production (absolute value)” value (HepaRG cells [9]; [10]) was 0.11 ± 0.11 µg/h. It also gave an ApoA1 production (HepaRG cells [9]; [11]) of 1.06 ± 0.95 μg/h/mg protein.

In the case of `N=C(NO)NCC[C@H](N)C(=O)O` [N^ω-hydroxy-nor-L-arginine], the “effect on Arginase II” value (Arginase II (Arg II)) is given as “inhibited” and the “effect on urea production” value (Arginase II (Arg II)) is given as “prevented”.
